From patent US12377175B2, “Trifunctional constructs with tunable pharmacokinetics useful in imaging and anti-tumor therapies” (Cornell University, priority 2016, dated 2025)
Values joined by “and” are separate entries in the source; they are usually repeats but may differ in a detail not shown here. Equal values may be shown once.

System: LNCaP xenograft tumor-bearing mice
Test: Biodistribution of 225Ac-macropa-RPS-070 in LNCaP xenograft mice
Format: in vivo, mouse
Conditions: for Organ distribution, Blood, Mean / Organ distribution, Bone, Mean / Organ distribution, Heart, Mean / Organ distribution, Kidneys, Mean / Organ distribution, Large Intestine, Mean / Organ distribution, Liver, Mean / Organ distribution, Lungs, Mean / Organ distribution, Muscle, Mean / Organ distribution, Pancreas, Mean / Organ distribution, Small Intestine, Mean / Organ distribution, Spleen, Mean / Organ distribution, Stomach, Mean / Organ distribution, Tumor, Mean: n = 5
Method: Cell Culture. […] Cell culture supplies were from Invitrogen unless otherwise noted.
Inoculation of Mice with Xenografts. All animal studies were approved by the Institutional Animal Care and Use Committee of Weill Cornell Medicine and were undertaken in accordance with the guidelines set forth by the USPHS Policy on Humane Care and Use of Laboratory Animals. Animals were housed under standard conditions in approved facilities with 12 h light/dark cycles. Food and water was provided ad libitum throughout the course of the studies. Hairless male nu/nu mice were purchased from the Jackson Laboratory. For inoculation in mice, LNCaP cells were suspended at 4×10^7 cells/mL in a 1:1 mixture of PBS:Matrigel (BD Biosciences). Each mouse was injected in the left flank with 0.25 mL of the cell suspension. Biodistributions were conducted when tumors were in the range 100-400 mm^3.
Biodistribution of […] in LNCaP xenograft mice. Fifteen LNCaP xenograft tumor-bearing mice (5 per time point) were injected intravenously with a bolus injection of 85-95 kBq and 100 ng ([…]) of each ligand. The mice were sacrificed by cervical dislocation at 4, 24 and 96 h post injection. A blood sample was removed, and a full biodistribution study was conducted on the following organs (with contents): heart, lungs, liver, small intestine, large intestine, stomach, spleen, pancreas, kidneys, muscle, bone, and tumor. Tissues were weighed and counted on a 2470 Wizard Automatic Gamma Counter (Perkin Elmer). 1% ID/mL samples were counted prior to and following each set of tissue samples to enable decay correction to be undertaken. Counts were corrected for decay and for activity injected, and tissue uptake was expressed as percent injected dose per gram (% ID/g). Standard error measurement was calculated for each data point.

O=C(O)CC[C@H](NC(=O)N[C@@H](CCCCNC(=O)Nc1cccc(-c2cn(CCOCCOCCOCCOCCOCCOCCC(=O)N[C@@H](CCCCNC(=S)Nc3cc(CN4CCOCCOCCN(Cc5cccc(C(=O)[O-])n5)CCOCCOCC4)nc(C(=O)[O-])c3)C(=O)N[C@@H](CCCCNC(=O)Cc3ccc(I)cc3)C(=O)O)nn2)c1)C(=O)O)C(=O)O.[225Ac+3] [225Ac-macropa-RPS-070]
Organ distribution, Blood, individual mice 1-5 (4 h after i.v. injection): 0.9065 % ID/g and 0.5525 % ID/g and 1.118 % ID/g and 0.8276 % ID/g and 0.6564 % ID/g
Organ distribution, Bone, individual mice 1-5 (4 h after i.v. injection): 1.149 % ID/g and 1.123 % ID/g and 1.487 % ID/g and 0.9204 % ID/g and 1.155 % ID/g
Organ distribution, Heart, individual mice 1-5 (4 h after i.v. injection): 0.7576 % ID/g and 0.6532 % ID/g and 0.774 % ID/g and 0.7515 % ID/g and 0.6565 % ID/g
Organ distribution, Kidneys, individual mice 1-5 (4 h after i.v. injection): 65.5884 % ID/g and 20.5274 % ID/g and 108.233 % ID/g and 33.654 % ID/g and 33.0707 % ID/g
Organ distribution, Large Intestine, individual mice 1-5 (4 h after i.v. injection): 1.363 % ID/g and 0.6516 % ID/g and 1.274 % ID/g and 0.9166 % ID/g and 0.819 % ID/g
Organ distribution, Liver, individual mice 1-5 (4 h after i.v. injection): 1.622 % ID/g and 1.346 % ID/g and 1.742 % ID/g and 1.681 % ID/g and 1.3957 % ID/g
Organ distribution, Lungs, individual mice 1-5 (4 h after i.v. injection): 0.9956 % ID/g and 0.6067 % ID/g and 1.2979 % ID/g and 0.9859 % ID/g and 0.8866 % ID/g
Organ distribution, Muscle, individual mice 1-5 (4 h after i.v. injection): 0.6801 % ID/g and 0.8058 % ID/g and 0.7282 % ID/g and 0.6767 % ID/g and 0.6562 % ID/g
Organ distribution, Pancreas, individual mice 1-5 (4 h after i.v. injection): 0.5549 % ID/g and 0.4164 % ID/g and 0.5532 % ID/g and 0.4675 % ID/g and 0.6604 % ID/g
Organ distribution, Small Intestine, individual mice 1-5 (4 h after i.v. injection): 0.1998 % ID/g and 0.1628 % ID/g and 0.3104 % ID/g and 0.2441 % ID/g and 0.1709 % ID/g
Organ distribution, Spleen, individual mice 1-5 (4 h after i.v. injection): 1.409 % ID/g and 0.708 % ID/g and 1.613 % ID/g and 1.108 % ID/g and 0.8756 % ID/g
Organ distribution, Stomach, individual mice 1-5 (4 h after i.v. injection): 0.3396 % ID/g and 0.2471 % ID/g and 0.3042 % ID/g and 0.4109 % ID/g and 0.2122 % ID/g
Organ distribution, Tumor, individual mice 1-5 (4 h after i.v. injection): 6.732 % ID/g and 10.7309 % ID/g and 23.8367 % ID/g and 15.3682 % ID/g and 7.504 % ID/g
Organ distribution, Blood, Mean (4 h after i.v. injection): 0.8122 % ID/g
Organ distribution, Bone, Mean (4 h after i.v. injection): 1.167 % ID/g
Organ distribution, Heart, Mean (4 h after i.v. injection): 0.7189 % ID/g
Organ distribution, Kidneys, Mean (4 h after i.v. injection): 52±16 % ID/g and 52.2146 % ID/g
Organ distribution, Large Intestine, Mean (4 h after i.v. injection): 1.005 % ID/g
Organ distribution, Liver, Mean (4 h after i.v. injection): 1.557 % ID/g
Organ distribution, Lungs, Mean (4 h after i.v. injection): 0.9469 % ID/g
Organ distribution, Muscle, Mean (4 h after i.v. injection): 0.7094 % ID/g
Organ distribution, Pancreas, Mean (4 h after i.v. injection): 0.5305 % ID/g
Organ distribution, Small Intestine, Mean (4 h after i.v. injection): 0.2176 % ID/g
Organ distribution, Spleen, Mean (4 h after i.v. injection): 1.143 % ID/g
Organ distribution, Stomach, Mean (4 h after i.v. injection): 0.3028 % ID/g
Organ distribution, Tumor, Mean (4 h after i.v. injection): 13±3 % ID/g and 12.8342 % ID/g
Organ distribution, Blood, individual mice 1-5 (24 h after i.v. injection): 0.3483 % ID/g and 0.3132 % ID/g and 0.2208 % ID/g and 0.2945 % ID/g and 0.277 % ID/g
Organ distribution, Bone, individual mice 1-5 (24 h after i.v. injection): 1.273 % ID/g and 1.066 % ID/g and 0.8394 % ID/g and 1.006 % ID/g and 0.6976 % ID/g
Organ distribution, Heart, individual mice 1-5 (24 h after i.v. injection): 0.5226 % ID/g and 0.5633 % ID/g and 0.4521 % ID/g and 0.4791 % ID/g and 0.4648 % ID/g
Organ distribution, Kidneys, individual mice 1-5 (24 h after i.v. injection): 4.988 % ID/g and 4.257 % ID/g and 3.946 % ID/g and 3.665 % ID/g and 4.103 % ID/g
Organ distribution, Large Intestine, individual mice 1-5 (24 h after i.v. injection): 0.133 % ID/g and 0.1259 % ID/g and 0.1325 % ID/g and 0.1343 % ID/g and 0.1318 % ID/g
Organ distribution, Liver, individual mice 1-5 (24 h after i.v. injection): 1.578 % ID/g and 1.476 % ID/g and 1.138 % ID/g and 1.143 % ID/g and 1.485 % ID/g
Organ distribution, Lungs, individual mice 1-5 (24 h after i.v. injection): 0.5378 % ID/g and 0.4508 % ID/g and 0.4608 % ID/g and 0.4286 % ID/g and 0.4483 % ID/g
Organ distribution, Muscle, individual mice 1-5 (24 h after i.v. injection): 0.6119 % ID/g and 0.5149 % ID/g and 0.4483 % ID/g and 0.7803 % ID/g and 0.4458 % ID/g
Organ distribution, Pancreas, individual mice 1-5 (24 h after i.v. injection): 0.3985 % ID/g and 0.3912 % ID/g and 0.5035 % ID/g and 0.3332 % ID/g and 0.3194 % ID/g
Organ distribution, Small Intestine, individual mice 1-5 (24 h after i.v. injection): 0.08784 % ID/g and 0.09914 % ID/g and 0.08822 % ID/g and 0.09466 % ID/g and 0.1037 % ID/g
Organ distribution, Spleen, individual mice 1-5 (24 h after i.v. injection): 0.6208 % ID/g and 0.6576 % ID/g and 0.6201 % ID/g and 0.5768 % ID/g and 0.5855 % ID/g
Organ distribution, Stomach, individual mice 1-5 (24 h after i.v. injection): 0.1296 % ID/g and 0.1212 % ID/g and 0.1119 % ID/g and 0.1467 % ID/g and 0.1533 % ID/g
Organ distribution, Tumor, individual mice 1-5 (24 h after i.v. injection): 11.6163 % ID/g and 9.269 % ID/g and 7.502 % ID/g and 4.414 % ID/g and 8.047 % ID/g
Organ distribution, Blood, Mean (24 h after i.v. injection): 0.2908 % ID/g
Organ distribution, Bone, Mean (24 h after i.v. injection): 0.9764 % ID/g
Organ distribution, Heart, Mean (24 h after i.v. injection): 0.4964 % ID/g
Organ distribution, Kidneys, Mean (24 h after i.v. injection): 4.192 % ID/g
Organ distribution, Large Intestine, Mean (24 h after i.v. injection): 0.1315 % ID/g
Organ distribution, Liver, Mean (24 h after i.v. injection): 1.364 % ID/g
Organ distribution, Lungs, Mean (24 h after i.v. injection): 0.4653 % ID/g
Organ distribution, Muscle, Mean (24 h after i.v. injection): 0.5603 % ID/g
Organ distribution, Pancreas, Mean (24 h after i.v. injection): 0.3891 % ID/g
Organ distribution, Small Intestine, Mean (24 h after i.v. injection): 0.09473 % ID/g
Organ distribution, Spleen, Mean (24 h after i.v. injection): 0.6122 % ID/g
Organ distribution, Stomach, Mean (24 h after i.v. injection): 0.1326 % ID/g
Organ distribution, Tumor, Mean (24 h after i.v. injection): 8.17 % ID/g
Organ distribution, Blood, individual mice 1-5 (96 h after i.v. injection): 0.1904 % ID/g and 0.1919 % ID/g and 0.1521 % ID/g and 0.1653 % ID/g and 0.2382 % ID/g
Organ distribution, Bone, individual mice 1-5 (96 h after i.v. injection): 0.8639 % ID/g and 0.8687 % ID/g and 0.8383 % ID/g and 1.122 % ID/g and 0.8204 % ID/g
Organ distribution, Heart, individual mice 1-5 (96 h after i.v. injection): 0.3994 % ID/g and 0.424 % ID/g and 0.4286 % ID/g and 0.4459 % ID/g and 0.456 % ID/g
Organ distribution, Kidneys, individual mice 1-5 (96 h after i.v. injection): 1.303 % ID/g and 1.3239 % ID/g and 2.004 % ID/g and 1.399 % ID/g and 1.46 % ID/g
Organ distribution, Large Intestine, individual mice 1-5 (96 h after i.v. injection): 0.04349 % ID/g and 0.09663 % ID/g and 0.04522 % ID/g and 0.04198 % ID/g and 0.03927 % ID/g
Organ distribution, Liver, individual mice 1-5 (96 h after i.v. injection): 0.7941 % ID/g and 0.8144 % ID/g and 0.733 % ID/g and 0.7917 % ID/g and 0.7942 % ID/g
Organ distribution, Lungs, individual mice 1-5 (96 h after i.v. injection): 0.3016 % ID/g and 0.5091 % ID/g and 0.4694 % ID/g and 0.3781 % ID/g and 0.3698 % ID/g
Organ distribution, Muscle, individual mice 1-5 (96 h after i.v. injection): 0.3022 % ID/g and 0.5249 % ID/g and 0.2509 % ID/g and 0.2982 % ID/g and 0.2528 % ID/g
Organ distribution, Pancreas, individual mice 1-5 (96 h after i.v. injection): 0.09848 % ID/g and 0.377 % ID/g and 0.3055 % ID/g and 0.3162 % ID/g and 0.3335 % ID/g
Organ distribution, Small Intestine, individual mice 1-5 (96 h after i.v. injection): 0.04372 % ID/g and 0.0577 % ID/g and 0.03752 % ID/g and 0.04431 % ID/g and 0.04136 % ID/g
Organ distribution, Spleen, individual mice 1-5 (96 h after i.v. injection): 0.4837 % ID/g and 0.394 % ID/g and 0.4426 % ID/g and 0.4348 % ID/g and 0.5397 % ID/g
Organ distribution, Stomach, individual mice 1-5 (96 h after i.v. injection): 0.03442 % ID/g and 0.04708 % ID/g and 0.03448 % ID/g and 0.02845 % ID/g and 0.02366 % ID/g
Organ distribution, Tumor, individual mice 1-5 (96 h after i.v. injection): 4.043 % ID/g and 4.078 % ID/g and 6.74 % ID/g and 4.581 % ID/g and 4.845 % ID/g
Organ distribution, Blood, Mean (96 h after i.v. injection): 0.1876 % ID/g
Organ distribution, Bone, Mean (96 h after i.v. injection): 0.9027 % ID/g
Organ distribution, Heart, Mean (96 h after i.v. injection): 0.4333 % ID/g
Organ distribution, Kidneys, Mean (96 h after i.v. injection): 1.4978 % ID/g
Organ distribution, Large Intestine, Mean (96 h after i.v. injection): 0.05332 % ID/g
Organ distribution, Liver, Mean (96 h after i.v. injection): 0.7855 % ID/g
Organ distribution, Lungs, Mean (96 h after i.v. injection): 0.4056 % ID/g
Organ distribution, Muscle, Mean (96 h after i.v. injection): 0.3258 % ID/g
Organ distribution, Pancreas, Mean (96 h after i.v. injection): 0.2861 % ID/g
Organ distribution, Small Intestine, Mean (96 h after i.v. injection): 0.04492 % ID/g
Organ distribution, Spleen, Mean (96 h after i.v. injection): 0.459 % ID/g
Organ distribution, Stomach, Mean (96 h after i.v. injection): 0.03362 % ID/g
Organ distribution, Tumor, Mean (96 h after i.v. injection): 4.857 % ID/g
uptake by other organs (other than kidneys and tumor) (96 h post injection): < 1 % ID/g
